As usually defined, the IC50 is the concentration at which inhibition is half-maximal.

The target of this assay is Tyrosine-protein kinase BTK (Homo sapiens, UniProt Q06187). Kind of assay: To each well of a black non-binding surface Corning 384-well microplate (Corning Catalog #3820), 5 nL of compound (2000 fold dilution in final assay volume of 10 μL) was dispensed, followed by the addition of 7.5 μL of 1× kinase buffer (50 mM Hepes 7.5, 10 mM MgCl2, 0.01% Brij-35, 1 mM EGTA, 0.05% BSA & 1 mM DTT) containing 5.09 pg/μL (66.67 pM) of BTK enzyme (recombinant protein from baculovirus-transfected Sf9 cells: full-length BTK, 6HIS-tag cleaved). Following a 60 minute compound & enzyme incubation, each reaction was initiated by the addition of 2.5 μL 1× kinase buffer containing 8 μM biotinylated A5 peptide (Biotin-EQEDEPEGDYFEWLE-NH2), and 100 μM ATP. The final reaction in each well of 10 μL consists of 50 pM hBTK, 2 μM biotin-A5-peptide, and 25 μM ATP. Phosphorylation reactions were allowed to proceed for 120 minutes. Reactions were immediately quenched by the addition of 20 uL of 1× quench buffer (15 mM EDTA, 25 mM Hepes 7.3, and 0.1% Triton X-100) containing detection reagents (0.626 nM of LANCE-Eu-W1024-anti-phosphoTyrosine antibody, PerkinElmer and 86.8 nM of Streptavidin-conjugated Dylight 650, Dyomics/ThermoFisher Scientific). After 60 minutes incubation with detection reagents, reaction plates were read on a PerkinElmer EnVision plate reader using standard TR-FRET protocol. Briefly, excitation of donor molecules (Eu-chelate:anti-phospho-antibody) with a laser light source at 337 nm produces energy that can be transferred to Dylight-650 acceptor molecules if this donor:acceptor pair is within close proximity. Fluorescence intensity at both 665 nm (acceptor) and 615 nm (donor) are measured and a TR-FRET ratio calculated for each well (acceptor intensity/donor intensity).
Tyrosine-protein kinase BTK, sequence (Q06187 whole entry): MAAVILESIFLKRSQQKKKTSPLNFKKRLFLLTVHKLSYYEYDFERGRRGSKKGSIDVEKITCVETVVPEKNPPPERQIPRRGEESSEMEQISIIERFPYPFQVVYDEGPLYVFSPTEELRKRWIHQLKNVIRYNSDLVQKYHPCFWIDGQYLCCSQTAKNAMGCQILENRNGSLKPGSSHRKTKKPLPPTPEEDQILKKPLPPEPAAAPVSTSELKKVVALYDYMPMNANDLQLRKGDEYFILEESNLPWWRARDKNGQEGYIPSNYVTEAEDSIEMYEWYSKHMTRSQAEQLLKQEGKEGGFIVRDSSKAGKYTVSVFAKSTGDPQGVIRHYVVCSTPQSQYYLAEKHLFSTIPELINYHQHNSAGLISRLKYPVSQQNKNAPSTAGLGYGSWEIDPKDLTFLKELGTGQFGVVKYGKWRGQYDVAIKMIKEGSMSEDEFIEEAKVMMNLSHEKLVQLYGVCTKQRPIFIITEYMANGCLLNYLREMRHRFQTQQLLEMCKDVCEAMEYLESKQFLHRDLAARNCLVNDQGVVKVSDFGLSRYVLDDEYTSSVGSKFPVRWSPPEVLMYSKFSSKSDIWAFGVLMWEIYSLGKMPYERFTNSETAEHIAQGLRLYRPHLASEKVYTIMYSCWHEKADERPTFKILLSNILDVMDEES
Regarding `C[C@@H](O)C(=O)N1CCC[C@@H](c2nn(-c3ccc(Oc4ccccc4)cc3)c3c(N)nccc23)C1`, the IC50 is 1 nM.
Consider `Cc1ncn(C)c1C(=O)N1CCC[C@@H](c2nn(-c3ccc(Oc4ccccc4)cc3)c3c(N)nccc23)C1`, for which the IC50 is 9.2 nM.
As to `C[C@H](O)C(=O)N1CCC[C@@H](c2nn(-c3ccc(Oc4ccccc4)cc3)c3c(N)nccc23)C1`, the IC50 was 2.3 nM.
As for `Nc1nccc2c([C@@H]3CCCN(C(=O)C4(O)CC4)C3)nn(-c3ccc(Oc4ccccc4)cc3)c12`, the figure is 3 nM; as for `CO[C@H](C)C(=O)N1CCC[C@@H](c2nn(-c3ccc(Oc4ccccc4)cc3)c3c(N)nccc23)C1`, 5.5 nM.
As for `Nc1nccc2c([C@@H]3CCCNC3)nn(-c3ccc(Oc4ccccc4)cc3)c12`, the figure is 30.8 nM.
In the case of `COCCC(=O)N1CCC[C@@H](c2nn(-c3ccc(Oc4ccccc4)cc3)c3c(N)nccc23)C1`, the IC50 is 1.8 nM.
Take `CC#CC(=O)N1CCC[C@@H](c2nn(-c3ccc(Oc4ccccc4)cc3)c3c(N)nccc23)C1`: the IC50 was 1 nM.
The same measure for `CC(=O)N1CCC[C@@H](c2nn(-c3ccc(Oc4ccccc4)cc3)c3c(N)nccc23)C1`: 2 nM; for `CO[C@@H](C)C(=O)N1CCC[C@@H](c2nn(-c3ccc(Oc4ccccc4)cc3)c3c(N)nccc23)C1`: 3.9 nM.
Take `Nc1nccc2c([C@@H]3CCCN(C(=O)C4CC(F)(F)C4)C3)nn(-c3ccc(Oc4ccccc4)cc3)c12`: the IC50 is 8.9 nM.
Regarding `CCOCC(=O)N1CCC[C@@H](c2nn(-c3ccc(Oc4ccccc4)cc3)c3c(N)nccc23)C1`, the IC50 is 3.5 nM.
The same measure for `CC(C)C(=O)N1CCC[C@@H](c2nn(-c3ccc(Oc4ccccc4)cc3)c3c(N)nccc23)C1`: 3.7 nM; for `Nc1nccc2c([C@@H]3CCCN(C(=O)C4CCC4)C3)nn(-c3ccc(Oc4ccccc4)cc3)c12`: 3.5 nM; for `CC1(C(=O)N2CCC[C@@H](c3nn(-c4ccc(Oc5ccccc5)cc4)c4c(N)nccc34)C2)CC1`: 3.3 nM.
Take `Cc1noc(C)c1C(=O)N1CCC[C@@H](c2nn(-c3ccc(Oc4ccccc4)cc3)c3c(N)nccc23)C1`: the IC50 is 13.7 nM.
`CCC(=O)N1CCC[C@@H](c2nn(-c3ccc(Oc4ccccc4)cc3)c3c(N)nccc23)C1`: the IC50 is 2 nM.
In the case of `COCC(=O)N1CCC[C@@H](c2nn(-c3ccc(Oc4ccccc4)cc3)c3c(N)nccc23)C1`, the IC50 was 2.7 nM.
Turning to `N#CC1(C(=O)N2CCC[C@@H](c3nn(-c4ccc(Oc5ccccc5)cc4)c4c(N)nccc34)C2)CC1`, the IC50 is 11.8 nM.
As to `Cn1cncc1C(=O)N1CCC[C@@H](c2nn(-c3ccc(Oc4ccccc4)cc3)c3c(N)nccc23)C1`, the IC50 was 2.7 nM.
`Nc1nccc2c([C@@H]3CCCN(C(=O)C4CC4)C3)nn(-c3ccc(Oc4ccccc4)cc3)c12`: the IC50 is 3.3 nM.
`COCCOCC(=O)N1CCC[C@@H](c2nn(-c3ccc(Oc4ccccc4)cc3)c3c(N)nccc23)C1`: the IC50 was 3.5 nM.
With `C=CC(=O)N1CCC[C@@H](c2nn(-c3ccc(Oc4ccccc4)cc3)c3c(N)nccc23)C1`, the 50% inhibitory concentration (IC50) is 0.66 nM.
